Measurements published in patent publication US20210045385A1, “PYRIDAZINONE-SUBSTITUTED KETOXIMES AS HERBICIDES” (FMC Corporation, priority 2018, published 2021).

Key:
Type in all cases: in vivo
[1] = tested on: Italian ryegrass (Lolium multiflorum); assay: Test A preemergence, visual plant response rating; conditions: for Ryegrass, Italian plant response rating: 125 g ai/ha, preemergence, 0 to 100 scale, 0 no effect, 100 complete control; for Ryegrass, Italian plant response rating (0 to 100 scale): 500 g ai/ha Preemergence, approx. 10 days
Outline: (§1)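 Ratings 0–100 (100 = complete control), visual, vs untreated controls at ~10 days. Application pre- or postemergence; solvent mixture with surfactant; loam/sand medium.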

[2] = tested on: barnyardgrass (Echinochloa crus-galli); assay: Test A preemergence, visual plant response rating; conditions: for Barnyardgrass plant response rating: 125 g ai/ha, preemergence, 0 to 100 scale, 0 no effect, 100 complete control; for Barnyardgrass plant response rating (0 to 100 scale): 500 g ai/ha Preemergence, approx. 10 days
Outline: as §1

[3] = tested on: foxtail, giant (giant foxtail, Setaria faberii); assay: Test A preemergence, visual plant response rating; conditions: for Foxtail, Giant plant response rating: 125 g ai/ha, preemergence, 0 to 100 scale, 0 no effect, 100 complete control; for Foxtail, Giant plant response rating (0 to 100 scale): 500 g ai/ha Preemergence, approx. 10 days
Outline: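 Ratings use a 0–100 visual scale (100 = complete control) against untreated controls, scored about 10 days after greenhouse treatment. Test chemicals were formulated in surfactant-containing non-phytotoxic solvent and applied either as soil spray after planting (preemergence) or onto one- to two-leaf, 2–10 cm plants (postemergence).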

[4] = tested on: kochia (Kochia scoparia); assay: Test A preemergence, visual plant response rating; conditions: for Kochia plant response rating: 125 g ai/ha, preemergence, 0 to 100 scale, 0 no effect, 100 complete control; for Kochia plant response rating (0 to 100 scale): 500 g ai/ha Preemergence, approx. 10 days
Outline: as §1

[5] = tested on: pigweed (Amaranthus retroflexus); assay: Test A preemergence, visual plant response rating; conditions: for Pigweed plant response rating: 125 g ai/ha, preemergence, 0 to 100 scale, 0 no effect, 100 complete control; for Pigweed plant response rating (0 to 100 scale): 500 g ai/ha Preemergence, approx. 10 days
Outline: as §1

[6] = tested on: ragweed (common ragweed, Ambrosia elatior); assay: Test A preemergence, visual plant response rating; conditions: for Ragweed plant response rating: 125 g ai/ha, preemergence, 0 to 100 scale, 0 no effect, 100 complete control; for Ragweed plant response rating (0 to 100 scale): 500 g ai/ha Preemergence, approx. 10 days
Outline: as §1

[7] = tested on: Italian ryegrass (Lolium multiflorum); assay: Test A postemergence, visual plant response rating
Description: (§2) Seeds of plant species selected from barnyardgrass (Echinochloa crus-galli), kochia (Kochia scoparia), ragweed (common ragweed, Ambrosia elatior), Italian ryegrass (Lolium multiflorum), foxtail, giant (giant foxtail, Setaria faberii), foxtail, green (green foxtail, Setaria viridis), and pigweed (Amaranthus retroflexus) were planted into a blend of loam soil and sand and treated preemergence with a directed soil spray using test chemicals formulated in a non-phytotoxic solvent mixture which included a surfactant.
(§3) At the same time, plants selected from these weed species and also wheat (Triticum aestivum), corn (Zea mays), blackgrass (Alopecurus myosuroides), and galium (catchweed bedstraw, Galium aparine) were planted in pots containing the same blend of loam soil and sand and treated with postemergence applications of test chemicals formulated in the same manner. Plants ranged in height from 2 to 10 cm and were in the one- to two-leaf stage for the postemergence treatment. Treated plants and untreated controls were maintained in a greenhouse for approximately 10 days, after which time all treated plants were compared to untreated controls and visually evaluated for injury. Plant response ratings, summarized in Table A, are based on a 0 to 100 scale where 0 is no effect and 100 is complete control. A dash (-) response means no test result.

[8] = tested on: barnyardgrass (Echinochloa crus-galli); assay: Test A postemergence, visual plant response rating; conditions: for Barnyardgrass plant response rating (0 to 100 scale): 500 g ai/ha, postemergence, 0 is no effect, 100 is complete control; for Barnyardgrass plant response rating: Postemergence, 125 g ai/ha, 0 to 100 scale (0 no effect, 100 complete control)
Description: as §2, §3

[9] = tested on: blackgrass (Alopecurus myosuroides); assay: Test A postemergence, visual plant response rating; conditions: for Blackgrass plant response rating (0 to 100 scale): 500 g ai/ha, postemergence, 0 is no effect, 100 is complete control; for Blackgrass plant response rating: Postemergence, 125 g ai/ha, 0 to 100 scale (0 no effect, 100 complete control)
Description: as §2, §3

[10] = tested on: corn (Zea mays); assay: Test A postemergence, visual plant response rating; conditions: for Corn plant response rating (0 to 100 scale): 500 g ai/ha, postemergence, 0 is no effect, 100 is complete control; for Corn plant response rating: Postemergence, 125 g ai/ha, 0 to 100 scale (0 no effect, 100 complete control)
Description: as §2, §3

[11] = tested on: foxtail, giant (giant foxtail, Setaria faberii); assay: Test A postemergence, visual plant response rating; conditions: for Foxtail, Giant plant response rating (0 to 100 scale): 500 g ai/ha, postemergence, 0 is no effect, 100 is complete control; for Foxtail, Giant plant response rating: Postemergence, 125 g ai/ha, 0 to 100 scale (0 no effect, 100 complete control)
Description: as §2, §3

[12] = tested on: galium (catchweed bedstraw, Galium aparine); assay: Test A postemergence, visual plant response rating; conditions: for Galium plant response rating (0 to 100 scale): 500 g ai/ha, postemergence, 0 is no effect, 100 is complete control; for Galium plant response rating: Postemergence, 125 g ai/ha, 0 to 100 scale (0 no effect, 100 complete control)
Description: as §2, §3

[13] = tested on: kochia (Kochia scoparia); assay: Test A postemergence, visual plant response rating; conditions: for Kochia plant response rating (0 to 100 scale): 500 g ai/ha, postemergence, 0 is no effect, 100 is complete control; for Kochia plant response rating: Postemergence, 125 g ai/ha, 0 to 100 scale (0 no effect, 100 complete control)
Description: as §2, §3

[14] = tested on: pigweed (Amaranthus retroflexus); assay: Test A postemergence, visual plant response rating; conditions: for Pigweed plant response rating (0 to 100 scale): 500 g ai/ha, postemergence, 0 is no effect, 100 is complete control; for Pigweed plant response rating: Postemergence, 125 g ai/ha, 0 to 100 scale (0 no effect, 100 complete control)
Description: as §2, §3

[15] = tested on: ragweed (common ragweed, Ambrosia elatior); assay: Test A postemergence, visual plant response rating; conditions: for Ragweed plant response rating (0 to 100 scale): 500 g ai/ha, postemergence, 0 is no effect, 100 is complete control; for Ragweed plant response rating: Postemergence, 125 g ai/ha, 0 to 100 scale (0 no effect, 100 complete control)
Description: as §2, §3

[16] = tested on: wheat (Triticum aestivum); assay: Test A postemergence, visual plant response rating; conditions: for Wheat plant response rating: 0 to 100 scale (0 no effect, 100 complete control)
Description: as §2, §3

[17] = tested on: barnyardgrass (Echinochloa crus-galli); assay: Test B flooded paddy test, visual plant response rating; conditions: 250 g ai/ha, Flood, applied to paddy water, 2-leaf stage, evaluated after 13 to 15 days
Outline: (§4)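 Greenhouse paddy conditions applied: two-leaf plants, a 3 cm flood above the soil surface maintained throughout, and compound added to the water rather than the foliage. Plants were judged visually against controls at 13 to 15 days.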

[18] = tested on: ducksalad (Heteranhera limosa); assay: as above; conditions: 250 g ai/ha, Flood, applied to paddy water, 2-leaf stage, evaluated after 13 to 15 days
Outline: as §4

[19] = tested on: rice (Oryza sativa); assay: as above; conditions: 250 g ai/ha, Flood, applied to paddy water, 2-leaf stage, evaluated after 13 to 15 days
Outline: as §4

[20] = tested on: sedge, umbrella (small-flower umbrella sedge, Cyperus difformis); assay: as above; conditions: 250 g ai/ha, Flood, applied to paddy water, 2-leaf stage, evaluated after 13 to 15 days
Outline: as §4

[21] = 500 g ai/ha, postemergence, 0 is no effect, 100 is complete control

Structure (SMILES)	Ryegrass, Italian plant response rating [1]	Ryegrass, Italian plant response rating (0 to 100 scale) [1]	Barnyardgrass plant response rating [2]	Barnyardgrass plant response rating (0 to 100 scale) [2]	Foxtail, Giant plant response rating [3]	Foxtail, Giant plant response rating (0 to 100 scale) [3]	Kochia plant response rating [4]	Kochia plant response rating (0 to 100 scale) [4]	Pigweed plant response rating [5]	Pigweed plant response rating (0 to 100 scale) [5]	Ragweed plant response rating [6]	Ragweed plant response rating (0 to 100 scale) [6]	Ryegrass, Italian plant response rating (0 to 100 scale) [7, 21]	Barnyardgrass plant response rating (0 to 100 scale) [8]	Barnyardgrass plant response rating [8]	Blackgrass plant response rating (0 to 100 scale) [9]	Blackgrass plant response rating [9]	Corn plant response rating (0 to 100 scale) [10]	Corn plant response rating [10]	Foxtail, Giant plant response rating (0 to 100 scale) [11]	also measured
CCCO/N=C(/c1c(O)c(C)nn(C)c1=O)c1cccc2ccccc12 [Compound 81]	20	50	60	70	60	100	10	10	20	100	90	100	20	70	40	80	70	20	20	80	Ryegrass, Italian plant response rating ([7]; Postemergence, 125 g ai/ha, 0 to 100 scale (0 no effect, 100 complete control)): 30; Foxtail, Giant plant response rating [11]: 60; Galium plant response rating (0 to 100 scale) [12]: 90; Galium plant response rating [12]: 80; Kochia plant response rating (0 to 100 scale) [13]: 60; Kochia plant response rating [13]: 40; Pigweed plant response rating (0 to 100 scale) [14]: 90; Pigweed plant response rating [14]: 60; Ragweed plant response rating (0 to 100 scale) [15]: 90; Ragweed plant response rating [15]: 80; Wheat plant response rating (0 to 100 scale) [16, 21]: 0; Wheat plant response rating ([16]; Postemergence, 125 g ai/ha): 0; Plant response rating, Barnyardgrass (0 to 100 scale, 0 is no effect, 100 is complete control) [17]: 0; Plant response rating, Ducksalad (0 to 100 scale, 0 is no effect, 100 is complete control) [18]: 0; Plant response rating, Rice (0 to 100 scale, 0 is no effect, 100 is complete control) [19]: 0; Plant response rating, Sedge, Umbrella (0 to 100 scale, 0 is no effect, 100 is complete control) [20]: 0
CON=C(c1ccc(C)o1)c1c(O)c(C)nn(C)c1=O [Compound 141]	0	20	0	0	0	0	0	0	0	0	0	0	0	0	0	30	10	0	0	0	Ryegrass, Italian plant response rating (0 to 100 scale) ([7]; Postemergence, rate not given, approx. 10 days): 0; Foxtail, Giant plant response rating [11]: 0; Galium plant response rating (0 to 100 scale) [12]: 10; Galium plant response rating [12]: 0; Kochia plant response rating (0 to 100 scale) [13]: 0; Kochia plant response rating [13]: 0; Pigweed plant response rating (0 to 100 scale) [14]: 0; Pigweed plant response rating [14]: 0; Ragweed plant response rating (0 to 100 scale) [15]: 0; Ragweed plant response rating [15]: 0; Wheat plant response rating ([16]; Postemergence, 500 g ai/ha): 0; Wheat plant response rating (0 to 100 scale) ([16]; Postemergence, approx. 10 days): 0; Plant response rating, Barnyardgrass (0 to 100 scale, 0 is no effect, 100 is complete control) [17]: 0; Plant response rating, Ducksalad (0 to 100 scale, 0 is no effect, 100 is complete control) [18]: 0; Plant response rating, Rice (0 to 100 scale, 0 is no effect, 100 is complete control) [19]: 0; Plant response rating, Sedge, Umbrella (0 to 100 scale, 0 is no effect, 100 is complete control) [20]: 0
